“Also recorded” adds a separate entry of the source. Non-standard residues stand in square brackets, D forms with d. Residues, ends and D or L forms follow the SMILES beside them. *: point of attachment. Decanoyl(3,6,9-trioxa) = COCCOCCOCC(=O)*; NBD = O=[N+]([O-])c1ccc(*)c2nonc12; dNle = CCCC[C@@H](N)C(=O)O; Nle = CCCC[C@H](N)C(=O)O; AEEA = NCCOCCOCC(=O)O; Ahx = NCCCCCC(=O)O
System: not listed separately
Assay: Stability in ARDS bronchoalveolar lavage fluid (MALDI-TOF MS)
Type: in vitro ADME, human
Details: human ARDS BALF pooled from three patients vs PBS, 5 and 30 min, MALDI-TOF MS
Excerpt: To determine the ability of UBI-3 to image bacteria in the continued presence of a complex inflammatory environment, bacteria were labelled with UBI-3 in the presence of broncho-alveolar lavage fluid (BALF) retrieved from ventilated ICU patients with Acute Respiratory Distress Syndrome (ARDS). ARDS BALF was utilised as ARDS is a severe life threatening pulmonary syndrome, characterized by a massive proteolytic and oxidative inflammatory environment within the distal alveolar region.[14] […] To design out susceptible amino acid cleavage points, a number of modifications were made (Table 1) and the functional consequences assessed. The chemical approaches pursued to improve resistance to degradation included replacing amino acids at the cleavage positions with non-natural amino acids such as N-methyl or D-amino acids,[15] and cyclisation of the peptide,[16] which could have the added benefit of enhancing affinity towards bacterial membrane.[17]
The Arg–Arg bonds were identified as the prominent position of degradation (Fig. 5) and Compounds UBI-4–9 (Table 1) were synthesised with a variety of substitutions around the degradation sites. The susceptible peptide bonds at P1–P2 and P7–P8 were blocked using N-MeArg (UBI-4), and to further mask these positions, a long polyethylene glycol (PEG) chain and/or a D-amino acid were positioned at the carboxylic and/or amino termini (UBI-5–7).
We hypothesized that cyclisation of the sequence would allow for greater stability and also improve bacterial affinity and therefore cyclic variants of UBI-3 were synthesized (UBI-10 and UBI-11), which were both found to be stable in BALF for 5 minutes (Fig. 7 and S3 ESI ^†). […] However, these studies also highlighted the degradation of UBI-10 at 10 minutes, guiding the temporal constraints of Smartprobe delivery and optical imaging.
Fig. 7 UBI-10 remains stable in ARDS BALF at 5 minutes. (A) Structure of UBI-10 with breakdown products in ARDS BALF. […] TEXT PRINTED IN THE PICTURE: UBI-10: Molecular Weight: 2118.41 | Fragment A: Molecular Weight: 1923.18 | Fragment B: Molecular Weight: 1980.23 DOUBTS OF THE COPYIST ABOUT THIS PICTURE: UBI-10, Molecular Weight: very small print, 2118.41 is the best reading; the digits 8 and 4 are uncertain / Fragment A, Molecular Weight: very small print, 1923.18 is the best reading; the digits 9, 3 and 8 are uncertain / Fragment B, Molecular Weight: very small print, 1980.23 is the best reading; the digits 9, 8 and 3 are uncertain […]
Supplementary Information
A Labelled-Ubiquicidin Antimicrobial Peptide for Immediate In Situ Optical Detection of Live Bacteria in Human Alveolar Lung Tissue
Ahsan R Akram, Nicolaos Avlonitis, Annamaria Lilienkampf, Ana M Perez-Lopez, Neil McDonald, Sunay V Chankeshwara, Emma Scholefield, Christopher Haslett, Mark Bradley & Kevin Dhaliwal.
Figure S1: MALDI-TOF MS spectra for a stability study of UBI-3 in PBS and in ARDS BALF […]
Figure S2. MALDI-TOF MS spectra of modified analogues UBI-4 to UBI-9 in Phosphate Buffered Saline and ARDS BALF over a period of 5 and 30min.
Figure S3: MALDI-TOF MS spectra of UBI-11 in Phosphate Buffered Saline vs ARDS BALF […]
Figure S4. Quantified fluorescence of confocal microscopy images of the compounds UBI-3, UBI-5 and UBI-10 on three bacteria and fluorescence retention following a PBS wash.
Figure S5: Fibered confocal fluorescence microscopy imaging of human lung and Calcein AM stained Methicillin sensitive S. aureus.
Experimental Details including Tables M1-4, Figure M1 and HPLC Chromatograms.
(also on this page, place not known: Electronic Supplementary Material (ESI) for Chemical Science. This journal is © The Royal Society of Chemistry 2015)
(1 picture or pasted object on this page, not shown here) […]
BALF Retrieval: Bronchoalveolar lavage was performed in the Intensive Care Unit (ICU), as previously described. S5 Pooled samples from three patients were used for stability assays. […]
Exposure to 488 nm light was limited to 5% […]

| Compound | stability in ARDS BALF |
| --- | --- |
| CCCC[C@H](NC(=O)[C@H](CCCNC(=N)N)NC(=O)[C@H](CCCNC(=N)N)NC(=O)[C@H](CCCCN)NC(=O)[C@H](C)NC(=O)[C@H](CCCNC(=N)N)NC(=O)CNC(=O)[C@@H](NC(=O)CCCCCNc1ccc([N+](=O)[O-])c2nonc12)[C@@H](C)O)C(=O)N[C@@H](CCC(N)=O)C(=O)N[C@@H](Cc1ccc(O)cc1)C(=O)N[C@@H](CC(N)=O)C(=O)N[C@@H](CCCNC(=N)N)C(=O)N[C@@H](CCCNC(=N)N)C(=O)NCCOCCOCC(=O)NCCOCCOCC(N)=O [UBI-7] ({NBD-Ahx}-TGRAKRR[Nle]QYNRR[AEEA][AEEA]-NH2) | did not improve stability in ARDS BALF; also recorded: Unstable in ARDS BALF at 30 minutes |

System: methicillin-sensitive Staphylococcus aureus
Assay: Confocal labelling of MSSA with quantified fluorescence
Type: cell-based
Details: MSSA, 10 μM, fluorescence normalized to UBI-3, mean ± SEM, n ≥ 3
Procedure: Fig. 6 Confocal Images of compounds UBI-3 to 9 with quantified fluorescence. Panels show methicillin-sensitive Staphylococcus aureus incubated with UBI-3 to 9 (all 10 μM) with quantification of bacterial fluorescence normalized to UBI-3 (bars represent mean (±SEM), n ≥ 3, ns = not significant, *** = p < 0.001, * = p < 0.05, scale bar = 10 μm).
Fig. 8 Confocal images and quantification of cyclic variants when compared to UBI-3. Panels show methicillin-sensitive Staphylococcus aureus incubated with cyclic UBI compounds (all 10 μM) with quantification of bacterial fluorescence normalized to UBI-3 (bars represent mean (±SEM), n ≥ 3, ns = not significant, ** = p < 0.01, scale bar = 10 μm).
Bacterial Culture and Labelling: Bacteria used were K. pneumoniae (ATCC BAA1706) ATCC, E. coli (ATCC 25922) ATCC, A. baumannii (J3433) Clinical Isolate, P. aeruginosa (J3284) Clinical Isolate, Methicillin Resistant S. aureus (MRSA) (ATCC25923) ATCC and Methicillin Sensitive S. aureus (MSSA) (ATCC 252) ATCC. All bacteria were grown on Lysogeny broth (LB) agar and from a single bacterial colony placed into 10ml of LB and incubated at 37°C for 16 hours in an orbital shaker.
Cultures were centrifuged at 4000rpm for 5 minutes and the pellet resuspended in 1ml phosphate buffered saline (PBS, Life Technologies). Following three further washes in PBS the cultures were reconstituted to 1 OD595 nm. Bacteria were counterstained with 5µM Syto 82 orange fluorescent nucleic acid stain (Invitrogen, CA, USA) in a shaking heat block at 37 °C for 20 minutes. For FCFM bacteria were stained with 1µM Calcein AM (Sigma, MO, USA) for 30 minutes at 37 °C. Counterstained bacteria were washed in PBS to remove excess dye. […]
Confocal Analysis and Fluorescence Quantification: 8-Well Lab-Tek II Confocal Chambers (VWR, PA, USA) were coated in fibronectin (for neutrophil experiments) or poly-d-lysine (for bacteria) at 37 °C for 20 minutes, then washed in PBS prior to bacterial innoculation. For co-culture assays, neutrophils were seeded on fibronectin coated wells at 1 x 10^5 neutrophils per well for 20 minutes and non-adherent neutrophils aspirated. Bacteria were added to each chamber to a final concentration of 0.5 OD595 nm with the desired final concentration of Smartprobe. A laser-scanning confocal imaging system (LSM510; Carl Zeiss, Jena, Germany), incorporating an upright Axioskop FS2 microscope (63× objective) was used for image acquisition and processing. Exposure to 488 nm light was limited to 5% of the maximum laser power in order to minimize toxicity. ‘Green’ fluorescence (for FAM and NBD) was excited with a dedicated 488 nm line and emitted light detected with meta detector (500-530 nM).
Syto nuclear and dyes were excited with a dedicated 543 nm line, and emitted light detected with meta detector (570-610 nM). Fields of view were chosen based on the counterstain and at least three fields of view were recorded for each condition. For affinity assays, following initial imaging, the fluid was aspirated and two gentle washes with PBS were performed. The chamber was re-imaged on confocal.
Analysis was with ImageJ (version 1.46r, National Institutes of Health, USA); the Syto channel was automatically thresholded (MaxEntropy, with a set threshold 0-47) and an ROI generated from this. The […]
mean fluorescence intensity on the probe channel within this ROI was quantified. Data presented represents the mean of three experiments, from each of which three separate fields of view were assessed. All experiments were performed at least three times unless otherwise stated and results expressed as mean ± SEM. Data was analysed by unpaired t-test and significance was determined as p<0.05 (GraphPad Prism version 5.01 for Windows, GraphPad Software, San Diego California USA).
Ex vivo Human Lung and FCFM Procedure: Human lung samples were obtained from patients undergoing surgical resection for lung carcinoma. All images were obtained on sections of normal lung […]

| Compound | bacterial labelling (fluorescence compared with UBI-3) |
| --- | --- |
| CCCC[C@H](NC(=O)[C@H](CCCNC(=N)N)NC(=O)[C@H](CCCNC(=N)N)NC(=O)[C@H](CCCCN)NC(=O)[C@H](C)NC(=O)[C@H](CCCNC(=N)N)NC(=O)CNC(=O)[C@@H](NC(=O)[C@H](CCCCNc1ccc([N+](=O)[O-])c2nonc12)NC(=O)COCCOCCOC)[C@@H](C)O)C(=O)N[C@@H](CCC(N)=O)C(=O)N[C@@H](Cc1ccc(O)cc1)C(=O)N[C@@H](CC(N)=O)C(=O)N[C@@H](CCCNC(=N)N)C(=O)N[C@@H](CCCNC(=N)N)C(=O)NCCOCCOCC(=O)NCCOCCOCC(N)=O [UBI-6] ({Decanoyl(3,6,9-trioxa)}-K(NBD)TGRAKRR[Nle]QYNRR[AEEA][AEEA]-NH2) | loss of labelling on bacteria; also recorded: loss of labelling efficacy |
| CCCC[C@H](NC(=O)[C@H](CCCNC(=N)N)NC(=O)[C@H](CCCNC(=N)N)NC(=O)[C@H](CCCCN)NC(=O)[C@H](C)NC(=O)[C@H](CCCNC(=N)N)NC(=O)CNC(=O)[C@@H](NC(=O)CCCCCNc1ccc([N+](=O)[O-])c2nonc12)[C@@H](C)O)C(=O)N[C@@H](CCC(N)=O)C(=O)N[C@@H](Cc1ccc(O)cc1)C(=O)N[C@@H](CC(N)=O)C(=O)N[C@@H](CCCNC(=N)N)C(=O)N[C@@H](CCCNC(=N)N)C(=O)NCCOCCOCC(=O)NCCOCCOCC(N)=O [UBI-7] ({NBD-Ahx}-TGRAKRR[Nle]QYNRR[AEEA][AEEA]-NH2) | loss of bacterial labelling; also recorded: loss of labelling efficacy |
| CCCC[C@@H](NC(=O)[C@@H](CCCNC(=N)N)NC(=O)[C@@H](CCCNC(=N)N)NC(=O)[C@@H](CCCCN)NC(=O)[C@@H](C)NC(=O)[C@@H](CCCNC(=N)N)NC(=O)CNC(=O)[C@H](NC(=O)COCCOCCNc1ccc([N+](=O)[O-])c2nonc12)[C@H](C)O)C(=O)N[C@H](CCC(N)=O)C(=O)N[C@H](Cc1ccc(O)cc1)C(=O)N[C@H](CC(N)=O)C(=O)N[C@H](CCCNC(=N)N)C(=O)N[C@H](CCCNC(=N)N)C(=O)O [UBI-8] ({NBD-AEEA}-[dT]G[dR][dA][dK][dR][dR][dNle][dQ][dY][dN][dR][dR]-OH) | loss of labelling on bacteria; also recorded: loss of labelling efficacy |
| CCCC[C@@H](NC(=O)[C@@H](CCC(N)=O)NC(=O)[C@@H](Cc1ccc(O)cc1)NC(=O)[C@@H](CC(N)=O)NC(=O)[C@@H](CCCNC(=N)N)NC(=O)[C@@H](CCCNC(=N)N)NC(=O)COCCOCCOC)C(=O)N[C@H](CCCNC(=N)N)C(=O)N[C@H](CCCNC(=N)N)C(=O)N[C@H](CCCCN)C(=O)N[C@H](C)C(=O)N[C@H](CCCNC(=N)N)C(=O)NCC(=O)N[C@@H](C(=O)N[C@@H](CCCCNc1ccc([N+](=O)[O-])c2nonc12)C(=O)O)[C@H](C)O [UBI-9] ({Decanoyl(3,6,9-trioxa)}-[dR][dR][dN][dY][dQ][dNle][dR][dR][dK][dA][dR]G[dT]K(NBD)-OH) | loss of labelling on bacteria; also recorded: loss of labelling efficacy |

System: not listed separately
Assay: broncho-alveolar lavage fluid (BALF) retrieved from ventilated ICU patients with Acute Respiratory Distress Syndrome (ARDS); pooled samples from three patients
Details: human, up to 30min

| not cleaved | Compound | cleaved bond |
| --- | --- | --- |
| Stable in ARDS BALF | MeO-PEG- D- Arg- D- Arg- D- Asn- D- Tyr- D- Gln- D- Nle- D- Arg- D- Arg- D- Lys- D- Ala- D- Arg-Gly- D- Thr-Lys(NBD)-OH | – |
| – | NBD-Ahx-Thr-Gly-Arg-Ala-Lys-Arg-Arg-Nle-Gln-Tyr-Asn-Arg-Arg-NH2 | ArgP8-ArgP7, major, <5 min; also recorded: ArgP2-ArgP1, major, <5 min |
| Stable in ARDS BALF | NBD-Ahx-Thr-Gly-Arg-Ala-Lys-Arg-MeArg-Nle-Gln-Tyr-Asn-Arg-Arg-D-Phe-D-Val-NH2 | – |
| Stable in ARDS BALF | NBD-Ahx-Thr-Gly-Arg-Ala-Lys-MeArg-MeArg-Nle-Gln-Tyr-Asn-MeArg-MeArg-NH2 | – |
| – | NBD-Ahx-cyclo[Lys-Thr-Gly-Arg-Ala-Lys-Arg-Arg-Nle-Gln-Tyr-Asn-Arg-Arg-Gly] | Thr-Gly, first_seen, 10min; also recorded: Arg-Arg, major, 20min |
| stability in BALF for over 30 minutes | NBD-Ahx-cyclo[Lys-Thr-Gly-Arg-Ala-Lys-Arg-Arg-Nle-Gln-Tyr-Asn-Arg-MeArg-Gly] | – |
| Stable in ARDS BALF | NBD-PEG-D-Thr-Gly-D-Arg-D-Ala-D-Lys-D-Arg-D-Arg-D-Nle-D-Gln-D-Tyr-D-Asn-D-Arg-D-Arg-OH | – |

Reference: paper PMC5947527 (Chemical Science, 2015)
